From patent publication US20030017999A1, “Composition for the prevention and /or treatment of lipid metabolism disorders and allergic forms” (priority 2000, published 2003)

Tests used:
[1] = tested on: Mitomycin-induced toxicity (mortality); assay: Mortality induced by mitomycin C in mice; assay type: in vivo; settings: for % animals surviving after 5 days / % animals surviving after 10 days / % animals surviving after 12 days (survival rate): mitomycin C 50 μg/mouse peritoneal for five days, alone or with isovaleryl L-carnitine 30 mg/mouse and/or β-glucan 10 mg/mouse; for % animals surviving after 5 days: day 5; for % animals surviving after 10 days: day 10; for % animals surviving after 12 days (survival rate): day 12
Method: Results of Tests Regarding the Immunostimulant and Protective Effect exerted against Mitomycin-induced Toxicity by the Combination of Isovaleryl L-carnitine and β-glucan
(§1) In these tests a first group of mice received peritoneal injections of 50 μg/mouse of mitomycin C for five consecutive days. In addition to mitomycin, a second group of animals were also injected with isovaleryl L-carnitine alone (30 mg/mouse), a third group with β-glucan alone (10 mg/mouse) and a fourth group with a combination of the two compounds for five consecutive days. On the fifth, tenth and twelfth day following the start of treatment, the number of leukocytes present in the blood and the mortality rates of the animals were evaluated in both treated and control animals.

[2] = tested on: Mitomycin-induced toxicity (leukocyte depletion); assay: Leukocyte depletion induced by mitomycin C in mice; assay type: in vivo; settings: mitomycin C 50 μg/mouse peritoneal for five days, alone or with isovaleryl L-carnitine 30 mg/mouse and/or β-glucan 10 mg/mouse; for No. leukocytes after 5 days: day 5; for No. leukocytes after 10 days: day 10; for No. leukocytes after 12 days: day 12
Method: as §1

[3] = tested on: human macrophages from bronchoalveolar lavage fluid; assay: Macrophage stimulation test (phagocytosis and intracellular killing); assay type: cell-based
Method: After filtration, centrifuging and gradient separation on Ficoll, the viability of the cells was evaluated with the trypan blue test. Phagocytosis and intracellular killing were calculated according to the method described by […]. Bacterial, 98:996, 1969).

SMILES	% animals surviving after 5 days [1]	% animals surviving after 10 days [1]	% animals surviving after 12 days (survival rate) [1]	No. leukocytes after 5 days [2]	No. leukocytes after 10 days [2]	No. leukocytes after 12 days [2]	increase in intracellular killing [3]	increase in phagocyte activity [3]	mortality rate ([1]; mitomycin C alone 50 μg/mouse peritoneal for five days, twelfth day)
CC(C)CC(=O)O[C@H](CC(=O)[O-])C[N+](C)(C)C [Isovaleryl L-carnitine]	50%	30%	15%	5,750 ± 310	4,900 ± 220	3,100 ± 310	15%	10%	–
CO[C@@]12[C@H](COC(N)=O)C3=C(C(=O)C(C)=C(N)C3=O)N1C[C@@H]1N[C@@H]12 [Mitomycin C]	50%	20%	0%	5,400 ± 270	3,000 ± 220	1,100 ± 190	–	–	100%
